In one assay the test system is A. aegypti L1 larvae. Briefly: Efficacy against A. aegypti mosquitos (L1 larvae motility, dose response). It counts as in vivo. Particulars: Aedes aegypti; ten A. aegypti L1 larvae, diluted LB media, 25° C., 48h; read-out: EC50 (motility of larvae compared to DMSO control wells). The protocol:
Method A: Efficacy of Compounds Against A. aegypti Mosquitos Compounds were formulated in 100% DMSO are added to microtiter plates containing 180 μl of diluted LB media (Luria-Bertani media is a combination of tryptone, salt and yeast extract). Ten A. aegypti L1 larvae are added and the plates are incubated at 25° C. for 48h. The efficacy of a compound is determined based on the motility of the larvae as compared to average motility of control wells containing DMSO only. A dose response assay was conducted to determine an EC50 value.

The subject of assay [1] is adult Ctenocephalides felis. Nature of the assay: Efficacy against fleas when ingested (treated bovine blood membrane feeding). It counts as in vivo. The note with it: adult Ctenocephalides felis fed on treated bovine blood, 72 hour assessment, compared with untreated controls. From the text:
Method B: Efficacy of Compounds Against Fleas when Ingested
A cylindrical test container was filled with 10 adult Ctenocephalides felis. A cylindrical well was closed on one end with a self-sealing flexible film and placed on top of the test container in such a position that the fleas could pierce the film and feed on the contents of the cylinder. The test compound solution was then pipetted into bovine blood and added to the well. The container part with the Ctenocephalides felis was held at 20-22° C. and 40-60% relative humidity while the well part containing the treated blood was held at 37° C. and 40-60% relative humidity. Assessment was performed at 72 hours after application in comparison with untreated controls.

Structures are written as SMILES.

What is called EC50 is the concentration needed to bring the measured effect to its halfway point. A word on the LC50: it is the concentration lethal to half of the exposed cells or organisms. Low readings indicate a more lethal substance, high ones a less lethal substance.

`COCn1nc(C2(C(F)(F)F)CC(c3ccc(C(=O)NCC(=O)NCC(F)(F)F)c(C)c3)=NO2)cc1C(F)(F)F` (centres unmarked) [Compound 2-31, 4-(5-(1-(methoxymethyl)-5-(trifluoromethyl)-1H-pyrazol-3-yl)-5-(trifluoromethyl)-4,5-dihydroisoxazol-3-yl)-2-methyl-N-(2-oxo-2-(2,2,2-trifluoroethylamino)ethyl)benzamide]: in the assay on A. aegypti L1 larvae, the concentration for a half-maximal effect (EC50) was less than 10 µM.

As to `CSCCNC(=O)c1ccc(C2=NOC(c3cc(C(F)(F)F)nn3C)(C(F)(F)F)C2)cc1C` (centres unmarked) [Compound 2-4, 2-methyl-4-[5-[1-methyl-3-(trifluoromethyl)-1H-pyrazol-5-yl]-5-(trifluoromethyl)-4,5-dihydro-1,2-oxazol-3-yl]-N-[2-(methylsulfanyl)ethyl]benzamide], the concentration giving a half-maximal response (EC50) in the assay on A. aegypti L1 larvae is less than 10 µM. In addition, in assay [1], the LC50 is less than 20 µM. On the same counts, the results for `Cc1cc(C2=NOC(c3cc(C(F)(F)F)nn3C)(C(F)(F)F)C2)ccc1C(=O)NCC(=O)NCC(F)(F)F` (centres unmarked) [Compound 2-1, 2-[(2-Methyl-4-[5-[1-methyl-3-(trifluoromethyl)-1H-pyrazol-5-yl]-5-(trifluoromethyl)-4,5-dihydro-1,2-oxazol-3-yl]phenyl)formamido]-N-(2,2,2-trifluoroethyl)acetamide] are less than 10 µM and less than 20 µM. For `Cn1nc(C(F)(F)F)cc1C1(C(F)(F)F)CC(c2ccc(C(=O)NCC(=O)NCC(F)(F)F)c3ccccc23)=NO1` (centres unmarked) [Compound 2-2, 2-[(4-[5-[1-methyl-3-(trifluoromethyl)-1H-pyrazol-5-yl]-5-(trifluoromethyl)-4,5-dihydro-1,2-oxazol-3-yl]naphthalen-1-yl)formamido]-N-(2,2,2-trifluoroethyl)acetamide], in the assay with A. aegypti L1 larvae, the half-maximal effective concentration (EC50) is less than 10 µM. The LC50 in assay [1] is less than 20 µM.

Take `Cc1cc(C2=NOC(c3cc(C(F)(F)F)nn3C)(C(F)(F)F)C2)ccc1C(=O)NCC(F)(F)F` (centres unmarked) [Compound 2-6, 2-methyl-4-[5-[1-methyl-3-(trifluoromethyl)-1H-pyrazol-5-yl]-5-(trifluoromethyl)-4,5-dihydro-1,2-oxazol-3-yl]-N-(2,2,2-trifluoroethyl)benzamide]: the EC50 in the assay on A. aegypti L1 larvae was less than 10 µM. In assay [1], the LC50 was less than 50 µM. Take `C=CCNC(=O)c1ccc(C2=NOC(c3cc(C(F)(F)F)nn3C)(C(F)(F)F)C2)cc1C` (centres unmarked) [Compound 2-8]: in the assay with A. aegypti L1 larvae, the EC50 was less than 20 µM. Turning to `COCn1nc(C(F)(F)F)cc1C1(C(F)(F)F)CC(c2ccc(C(=O)NCC(=O)NCC(F)(F)F)c(C)c2)=NO1` (centres unmarked) [Compound 2-30, 2-[(4-[5-[1-(methoxymethyl)-3-(trifluoromethyl)-1H-pyrazol-5-yl]-5-(trifluoromethyl)-4,5-dihydro-1,2-oxazol-3-yl]-2-methylphenyl)formamido]-N-(2,2,2-trifluoroethyl)acetamide], the EC50 in the assay with A. aegypti L1 larvae is less than 10 µM. `Cc1cc(C2=NOC(c3cc(C(F)(F)F)nn3C)(C(F)(F)F)C2)ccc1C(=O)NC1CC1` (centres unmarked) [Compound 2-7, N-cyclopropyl-2-methyl-4-[5-[1-methyl-3-(trifluoromethyl)-1H-pyrazol-5-yl]-5-(trifluoromethyl)-4,5-dihydro-1,2-oxazol-3-yl]benzamide]: the concentration giving a half-maximal response (EC50) with A. aegypti L1 larvae is less than 10 µM. The same molecule displayed an LC50 in assay [1] of less than 50 µM.

In the case of `Cc1cc(C2=NOC(c3cn(C)nc3C(F)(F)F)(C(F)(F)F)C2)ccc1C(=O)NCC(=O)NCC(F)(F)F` (centres unmarked) [Compound 2-11, 2-[(2-methyl-4-[5-[1-methyl-3-(trifluoromethyl)-1H-pyrazol-4-yl]-5-(trifluoromethyl)-4,5-dihydro-1,2-oxazol-3-yl]phenyl)formamido]-N-(2,2,2-trifluoroethyl)acetamide], the concentration giving a half-maximal response (EC50) in the assay with A. aegypti L1 larvae was less than 20 µM. As for `Cn1nc(C(F)(F)F)cc1C1(C(F)(F)F)CC(c2ccc3c(c2)COC32CN(C(=O)CS(C)(=O)=O)C2)=NO1` (centres unmarked) [Compound 2-3, 1-(5′-(5-(1-methyl-3-(trifluoromethyl)-1H-pyrazol-5-yl)-5-(trifluoromethyl)-4,5-dihydroisoxazol-3-yl)-3′H-spiro[azetidine-3,1′-isobenzofuran]-1-yl)-2-(methylsulfonyl)ethan-1-one], the concentration giving a half-maximal response (EC50) in the assay on A. aegypti L1 larvae is less than 10 µM. In assay [1], this molecule displayed an LC50 of less than 20 µM. Turning to `Cn1nc(C(F)(F)F)cc1C1(C(F)(F)F)CC(c2ccc(C(=O)NCC(=O)NCC(F)(F)F)cc2)=NO1` (centres unmarked) [Compound 2-9, 2-[(4-[5-[1-Methyl-3-(trifluoromethyl)-1H-pyrazol-5-yl]-5-(trifluoromethyl)-4,5-dihydro-1,2-oxazol-3-yl]phenyl)formamido]-N-(2,2,2-trifluoroethyl) acetamide], in the assay with A. aegypti L1 larvae, the EC50 is less than 20 µM. Turning to `Cn1nc(C(F)(F)F)cc1C1(C(F)(F)F)CC(c2ccc(Cl)c(C(=O)NC3CC3)c2)=NO1` (centres unmarked) [Compound 2-10, 2-Chloro-N-cyclopropyl-5-[5-[1-methyl-3-(trifluoromethyl)-1H-pyrazol-5-yl]-5-(trifluoromethyl)-4,5-dihydro-1,2-oxazol-3-yl]benzamide], the concentration for a half-maximal effect (EC50) in the assay with A. aegypti L1 larvae was less than 20 µM. Regarding `Cc1cc(C2=NOC(c3cc(C(F)(F)F)nn3C)(C(F)(F)F)C2)ccc1C(=O)NCCS(C)(=O)=O` (centres unmarked) [Compound 2-5, N-(2-methanesulfonylethyl)-2-methyl-4-[5-[1-methyl-3-(trifluoromethyl)-1H-pyrazol-5-yl]-5-(trifluoromethyl)-4,5-dihydro-1,2-oxazol-3-yl]benzamide], the EC50 in the assay on A. aegypti L1 larvae is less than 10 µM. Moreover, in assay [1], the LC50 was less than 20 µM.

Source of the values: patent US11589586B2, “Pesticidal and parasiticidal pyrazole-isoxazoline compounds” (BOEHRINGER INGELHEIM ANIMAL HEALTH USA INC., priority 2017, dated 2023).
